Assay results as given in patent publication US10752933B2, “Methods for the identification, characterization, and use of inhibitors of the fructose-asparagine utilization pathway” (priority 2015, dated 2020).
“Also recorded” adds a separate entry of the source.

Key:
Format in all cases: cell-based, Salmonella enterica serovar Typhimurium
[1] = tested on: ΔfraB::kan (HMB206) fraB mutant; test: Growth inhibition of fraB mutant by F-Asn in M9 glucose medium (IC50, IC90, MBC)
Procedure: (§1) FIG. 25 reflects the determination of the IC50 and IC90 of F-Asn to a fraB mutant. Wild-type (strain 14028, ●), ΔfraB::kan (HMB206, □) or Δfra island (HMB205, ▴) were grown in M9 minimal medium containing 5 mM glucose and varying concentrations of F-Asn. The data points represent the optical density obtained after 15 hours of growth at 37° C.
(§2) Growth curves were performed using clear, flat-bottom, 96-well plates. Minimal media with the specified carbon source were prepared and overnight cultures were washed twice with sterile water. In each well, 198-μl aliquots of media were inoculated with 2 μl of washed overnight cultures. A Breathe-Easy membrane film (Diversified Biotech) was placed over each 96-well plate. Growth over 18 hr at 37° C. was measured using hourly OD600 measurements in a SpectraMax M5 (Molecular Devices) Microplate Reader and SoftMax Pro 6.1 software.
(§3) To determine if F-Asn was bacteriostatic or bactericidal to the fraB mutant, the 50% and 90% inhibitory concentration (IC50 and IC90) and the minimum bactericidal concentration (MBC) were characterized. The IC50 and IC90 were determined by adding increasing concentrations of F-Asn to M9 minimal medium containing glucose as the carbon source. Growth of the fraB mutant was then monitored in these media. […] To determine the MBC, a small aliquot of these same cultures was dilution-plated onto LB agar.

[2] = tested on: Wild-type (strain 14028); test: Growth inhibition by F-Asn in M9 glucose medium, wild-type; conditions: M9 minimal medium with glucose and F-Asn
Procedure: as §1, §2, §3

[3] = tested on: wild-type MA43 Salmonella; test: Growth of Salmonella on Amadori products as sole carbon source; conditions: NCE minimal medium, carbon source at 5 mM, 37° C.
Procedure: FIG. 2A to FIG. 2E are graphs showing growth of wild-type and fraB1::kan mutant Salmonella on Amadori products. Growth of wild-type MA43 and fraB1::kan mutant MA59 on F-Asn (FIG. 2A), F-Arg (FIG. 2B), F-Lys (FIG. 2C), asparagine, arginine, lysine, or glucose (FIG. 2D). Bacteria were grown overnight in Luria Bertani (LB) broth at 37° C. with shaking, centrifuged, resuspended in water, and subcultured 1:1000 into minimal “no carbon E” (NCE) medium (containing trace metals) and the indicated carbon source at 5 mM. The optical density at 600 nm was then read at time points during growth at 37° C. with shaking. Controls included NCE with no carbon source, and NCE with glucose that was not inoculated, as a sterility control (FIG. 2D). FIG. 2E is a graph showing complementation of a fraB1::kan mutation with plasmid pASD5006 encoding the fra island (ASD6000) or the vector control, pWSK29 (ASD6010). Each point represents the mean of three cultures with error bars indicating standard deviation. FIG. 2A to FIG. 2C: ● wild-type; ◯ fraB mutant; FIG. 2D: ● Glucose wild-type; ◯ Glucose fraB mutant; □ No carbon source; ● Sterility; ⋄ Asn wild-type; * Arg wild-type; × Lys wild type; FIG. 2E: ◯ Glucose fraB mutant+pASD5006; ● Glucose fraB mutant+vector; ▪ F-Asn fraB mutant+pASD5006; F-Asn fraB mutant+vector; y-axis: OD600; x-axis: time (hours).
Amadori products most often result from a spontaneous reaction between a carbonyl group (often of glucose, although numerous other compounds can also react) and an amino group of an amino acid in vivo, and are then referred to as non-enzymatic glycation products. Zhang et al., 8 J. Proteome. Res. 754 (2009); Tessier, 58 Pathol. Biol. 214 (2010). With F-Lys and fructose-arginine (F-Arg) this can happen with the free amino acid, or the side groups of the lysine and arginine residues of a protein. In contrast, fructose-asparagine (F-Asn) can only result from reaction of glucose with the alpha amino group of free asparagine or the N-terminal asparagine of a protein. […]

[4] = tested on: Δfra island (HMB205); test: Growth inhibition by F-Asn in M9 glucose medium, fra island mutant; conditions: M9 minimal medium with glucose and F-Asn
Procedure: as §1, §2, §3

[5] = tested on: wild-type MA43 Salmonella; test: Growth with F-Asn under aerobic and anaerobic conditions with or without tetrathionate; conditions: 5 mM F-Asn
Procedure: FIG. 4A to FIG. 4D show growth of Salmonella on F-Asn in the presence or absence of tetrathionate or oxygen. Growth of wild-type MA43 and fraB1::kan mutant MA59 on 5 mM F-Asn or 5 mM glucose anaerobically (FIG. 4A and FIG. 4B) or aerobically (FIG. 4C and FIG. 4D) in the presence (FIG. 4A and FIG. 4C) or absence (FIG. 4B and FIG. 4D) of 40 mM tetrathionate (S406 22). Bacteria were grown overnight in LB at 37° C. shaking, centrifuged, resuspended in water, and subcultured 1:1000 into NCE medium containing the indicated carbon source. The optical density at 600 nm was then read at time points during growth at 37° C. with shaking. Each point represents the mean of four cultures with error bars indicating standard deviation. ● F-Asn wild-type; ▪ F-Asn fraB mutant; ▴ Glucose wild-type; ▾ Glucose fraB mutant; x-axis: time (hours); y-axis: OD600.
Growth with F-Asn was tested under aerobic and anaerobic conditions in the presence or absence of the terminal electron acceptor tetrathionate (FIG. 4A to FIG. 4D). […] Competition experiments in which the wild-type and fraB1::kan mutant were grown in the same culture were performed in minimal medium containing F-Asn. As expected, the mutant was severely attenuated during aerobic and anaerobic growth, and in the presence or absence of tetrathionate (FIG. 5). Indeed, the attenuation was most severe during anaerobic growth in the presence of tetrathionate.

Compound | IC50 ([1]; Salmonella enterica, M9 minimal medium, 5 mM glucose, varying F-Asn, optical density after 15 hours at 37° C., 95% confidence interval 9 to 40 μM) | IC90 ([1]; Salmonella enterica, M9 minimal medium, 5 mM glucose, varying F-Asn, optical density after 15 hours at 37° C., 95% confidence interval 82 to 368 μM) | minimum bactericidal concentration (MBC) ([1]; aliquot of IC50 cultures dilution-plated onto LB agar, up to highest F-Asn concentrations tested) | bacteriostatic or bactericidal to the fraB mutant ([1]; in vitro, cultures dilution-plated onto LB agar) | inhibitory to growth [2] | growth on Amadori product as sole carbon source [3] | inhibitory to growth [4] | Salmonella doubling time on F-Asn ([5]; aerobically with tetrathionate) | Salmonella doubling time on F-Asn ([5]; aerobically without tetrathionate) | Salmonella doubling time on F-Asn ([5]; anaerobically with tetrathionate) | Salmonella doubling time on F-Asn ([5]; anaerobically without tetrathionate)
NC(=O)C[C@@H](NCC1(O)OC[C@@H](O)[C@@H](O)[C@@H]1O)C(=O)O (stereo partly drawn) [F-Asn, (2R)-4-amino-4-oxo-2-[[(3S,4R,5R)-2,3,4,5-tetrahydroxyoxan-2-yl]methylamino]butanoic acid] | 19 µM | 174 µM | no MBC was revealed | bacteriostatic; also recorded: bacteriostatic, not bactericidal | not | grew as well on F-Asn as on glucose | not | 1.6 ± 0.1 h | 2.0 ± 0.3 h | 1.9 ± 0.1 h | 2.9 ± 0.4 h
fructose-arginine [F-Arg] |  |  |  |  |  | unable to grow |  |  |  |  | 
fructose-lysine [F-Lys] |  |  |  |  |  | grew slowly and with low yield |  |  |  |  | 
